In US7115642B2, “Substituted diphenyl isoxazoles, pyrazoles and oxadiazoles useful for treating HCV infection” (priority 2003, dated 2006):
Like-named read-outs stand apart in the source and are kept apart here.

Key:
[1] = tested on: HCV replicon (5-2 Luc replicon-comprising cells); experiment: HCV replicon assay (luciferase); type: cell-based, Hepatitis C virus; settings: 5-2 Luc replicon cells, luciferase readout, read-out: Replicon IC50
In short: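 Huh7-derived 5-2 Luc replicon cells seeded 24 h at 37 °C, then exposed to compound at various concentrations for another 24 h. Luciferase quantified by Bright-Glo luminescence; IC50 = concentration giving 50% reduction in luciferase activity; reported as +/− at a 10 μM cut-off.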

[2] = Cytotoxicity assay (Cell Titer Glo); type: cell-based; settings: human; 48 hr with compound, ATP-dependent Cell Titer Glo assay; read-out: IC50 in cytotoxicity assay (number of viable cells)
Protocol: Compounds 67, 167, 169, 13, 1, 145, 29, 119, 63, 31, 39, 103, 123, 121, 97, 129, 79, 111, 85, 89, 109, 127, 131, 95, 47, 57, 69, 165, 161, 163, 3, 137, 15, 141, 41, 53, 33, 113, 93, 105, 77, 91, 81, 83, 35, 27, 65, 7, 135, 51, 139, 51, 49, 143, 5, 149, 11, 37, 21, 45, 61, 75, 23, 125, 73, 43, 171 and 101 were tested in a cytotoxicity assay with liver cells including an HCV replicon (5-2 Luc cells, 9–13 cells or Huh-7 cells). In the assay, cells were seeded onto 96-well plates (approx. 7500 cells/well in a volume of 90 μl) and grown for 24 hr at 37° C. On day 2, various concentrations of test compound (in a volume of 10 μl) were added to the wells and the cells were grown for an additional 48 hr at 37° C. On day 4, an ATP-dependent R-Luciferase assay (Cell Titer Glo assay) was performed to determine the number of viable cells.

O=C(Nc1cccc(-c2cc(-c3c(Cl)cccc3Cl)no2)c1)C(Br)Br [Compound 29, 2,2-Dibromo-N-[3-[3-(2,6-dichlorophenyl)-5-isoxazolyl]phenyl]Acetamide]
IC50 ([1]; Hepatitis C virus): < 10 µM
IC50 at 48 h [2]: > 10 µM

Cc1cccc(Cl)c1-c1cc(-c2cccc(NC(=O)C(Cl)Cl)c2)on1 [Compound 31, 2,2-Dichloro-N-[3-[3-(2-chloro-6-methylphenyl)-5-isoxazolyl]phenyl]Acetamide]
IC50 ([1]; Hepatitis C virus): < 10 µM
IC50 at 48 h [2]: > 10 µM

O=C(Nc1cccc(-c2cc(-c3ccccc3C(F)(F)F)no2)c1)C(Cl)Cl [Compound 33, 2,2-Dichloro-N-[3-[3-(2-trifluoromethylphenyl)-5-isoxazolyl]phenyl]Acetamide]
IC50 ([1]; Hepatitis C virus): < 10 µM
IC50 at 48 h [2]: > 10 µM

O=C(Nc1cccc(-c2cc(-c3c(O)cccc3C(F)(F)F)no2)c1)C(Cl)Cl [Compound 35, 2,2-Dichloro-N-[3-[3-(2-hydroxy-6-trifluoromethylphenyl)-5-isoxazolyl]phenyl]Acetamide]
IC50 ([1]; Hepatitis C virus): < 10 µM
IC50 at 48 h [2]: > 10 µM

CC(C)c1cccc(Cl)c1-c1cc(-c2cccc(NC(=O)C(Cl)Cl)c2)on1 [Compound 39, 2,2-Dichloro-N-[3-[3-(2-chloro-6-isopropylphenyl)-5-isoxazolyl]phenyl]Acetamide]
IC50 ([1]; Hepatitis C virus): < 10 µM
IC50 at 48 h [2]: > 10 µM

O=C(Nc1cccc(-c2cc(-c3c(F)cccc3C(F)(F)F)no2)c1)C(Cl)Cl [Compound 41, 2,2-Dichloro-N-[3-[3-(2-fluoro-6-trifluoromethylphenyl)-5-isoxazolyl]phenyl]Acetamide]
IC50 ([1]; Hepatitis C virus): < 10 µM
IC50 at 48 h [2]: > 10 µM

COc1cccc(F)c1-c1cc(-c2cccc(NC(=O)C(Cl)Cl)c2)on1 [Compound 43, 2,2-Dichloro-N-[3-[3-(2-fluoro-6-methoxyphenyl)-5-isoxazolyl]phenyl]Acetamide]
IC50 ([1]; Hepatitis C virus): < 10 µM
IC50 at 48 h [2]: > 10 µM

O=C(Nc1cccc(-c2cc(-c3ccccc3OC(F)F)no2)c1)C(Cl)Cl [Compound 45, 2,2-Dichloro-N-[3-[3-(2-difluoromethoxyphenyl)-5-isoxazolyl]phenyl]Acetamide]
IC50 ([1]; Hepatitis C virus): < 10 µM
IC50 at 48 h [2]: > 10 µM

Cc1cccc(C)c1-c1cc(-c2cccc(NC(=O)C(Cl)Cl)c2)on1 [Compound 47, 2,2-Dichloro-N-[3-[3-(2,6-dimethylphenyl)-5-isoxazolyl]phenyl]Acetamide]
IC50 ([1]; Hepatitis C virus): < 10 µM
IC50 at 48 h [2]: > 5 µM

O=C(Nc1cccc(-c2cc(-c3c(F)cccc3I)no2)c1)C(Cl)Cl [Compound 49, 2,2-Dichloro-N-[3-[3-(2-fluoro-6-iodophenyl)-5-isoxazolyl]phenyl]Acetamide]
IC50 ([1]; Hepatitis C virus): < 10 µM
IC50 at 48 h [2]: > 10 µM

Cc1ccc(Cl)c(-c2cc(-c3cccc(NC(=O)C(Cl)Cl)c3)on2)c1F [Compound 51, 2,2-Dichloro-N-[3-[3-(6-chloro-2-fluoro-3-methylphenyl)-5-isoxazolyl]phenyl]Acetamide]
IC50 ([1]; Hepatitis C virus): < 10 µM
IC50 at 48 h [2]: > 10 µM

O=C(Nc1cccc(-c2cc(-c3c(F)ccc(F)c3Cl)no2)c1)C(Cl)Cl [Compound 53, 2,2-Dichloro-N-[3-[3-(2-chloro-3,6-difluorophenyl)-5-isoxazolyl]phenyl]Acetamide]
IC50 ([1]; Hepatitis C virus): < 10 µM
IC50 at 48 h [2]: > 10 µM

CCOc1ccccc1-c1cc(-c2cccc(NC(=O)C(Cl)Cl)c2)on1 [Compound 61, 2,2-Dichloro-N-[3-[3-(2-ethoxyphenyl)-5-isoxazolyl]phenyl]Acetamide]
IC50 ([1]; Hepatitis C virus): < 10 µM
IC50 at 48 h [2]: > 10 µM

CC(C)c1ccccc1-c1cc(-c2cccc(NC(=O)C(Cl)Cl)c2)on1 [Compound 63, 2,2-Dichloro-N-[3-[3-(2-isopropylphenyl)-5-isoxazolyl]phenyl]Acetamide]
IC50 ([1]; Hepatitis C virus): < 10 µM
IC50 at 48 h [2]: > 10 µM

CN(C)c1cc(Cl)c(-c2cc(-c3cccc(NC(=O)C(Cl)Cl)c3)on2)c(Cl)c1 [Compound 65, 2,2-Dichloro-N-[3-[3-(2,6-dichloro-4-dimethylaminophenyl)-5-isoxazolyl]phenyl]Acetamide]
IC50 ([1]; Hepatitis C virus): < 10 µM
IC50 at 48 h [2]: > 10 µM

O=C(CCl)Nc1cccc(-c2cc(-c3c(Cl)cccc3Cl)no2)c1 [Compound 67, 2-Chloro-N-[3-[3-(2,6-dichlorophenyl)-5-isoxazolyl]phenyl]Acetamide]
IC50 ([1]; Hepatitis C virus): < 10 µM
IC50 at 48 h [2]: > 5 µM

Cc1cc(C)c(-c2cc(-c3cccc(NC(=O)C(Cl)Cl)c3)on2)c(C)c1 [Compound 69, 2,2-Dichloro-N-[3-[3-(2,4,6-trimethylphenyl)-5-isoxazolyl]phenyl]Acetamide]
IC50 ([1]; Hepatitis C virus): < 10 µM
IC50 at 48 h [2]: 3 µM

COc1cccc(C(F)(F)F)c1-c1cc(-c2cccc(NC(=O)C(Cl)Cl)c2)on1 [Compound 77, 2,2-Dichloro-N-[3-[3-(2-methoxy-6-trifluoromethylphenyl)-5-isoxazolyl]phenyl]Acetamide]
IC50 ([1]; Hepatitis C virus): < 10 µM
IC50 at 48 h [2]: > 10 µM

O=C(Nc1cccc(-c2cc(-c3c(Cl)cccc3C3CC3)no2)c1)C(Cl)Cl [Compound 79, 2,2-Dichloro-N-[3-[3-(2-chloro-6-cyclopropylphenyl)-5-isoxazolyl]phenyl]Acetamide]
IC50 ([1]; Hepatitis C virus): < 10 µM
IC50 at 48 h [2]: > 10 µM

COc1cccc(Cl)c1-c1cc(-c2cccc(NC(=O)C(Cl)Cl)c2)on1 [Compound 81, 2,2-Dichloro-N-[3-[3-(2-chloro-6-methoxyphenyl)-5-isoxazolyl]phenyl]Acetamide]
IC50 ([1]; Hepatitis C virus): < 10 µM
IC50 at 48 h [2]: > 10 µM

O=C(Nc1cccc(-c2cc(-c3c(O)cccc3Cl)no2)c1)C(Cl)Cl [Compound 83, 2,2-Dichloro-N-[3-[3-(2-chloro-6-hydroxyphenyl)-5-isoxazolyl]phenyl]Acetamide]
IC50 ([1]; Hepatitis C virus): < 10 µM
IC50 at 48 h [2]: > 10 µM

Cc1cccc(C(F)(F)F)c1-c1cc(-c2cccc(NC(=O)C(Cl)Cl)c2)on1 [Compound 85, 2,2-Dichloro-N-[3-[3-(2-methyl-6-trifluoromethylphenyl)-5-isoxazolyl]phenyl]Acetamide]
IC50 ([1]; Hepatitis C virus): < 10 µM
IC50 at 48 h [2]: > 10 µM

O=C(Nc1cccc(-c2cc(-c3c(C4CC4)cccc3C(F)(F)F)no2)c1)C(Cl)Cl [Compound 89, 2,2-Dichloro-N-[3-[3-(2-cyclopropyl-6-trifluoromethylphenyl)-5-isoxazolyl]phenyl]Acetamide]
IC50 ([1]; Hepatitis C virus): < 10 µM
IC50 at 48 h [2]: > 10 µM

COc1cccc(C)c1-c1cc(-c2cccc(NC(=O)C(Cl)Cl)c2)on1 [Compound 91, 2,2-Dichloro-N-[3-[3-(2-methoxy-6-methylphenyl)-5-isoxazolyl]phenyl]Acetamide]
IC50 ([1]; Hepatitis C virus): < 10 µM
IC50 at 48 h [2]: > 10 µM

CC(C)c1cccc(C(F)(F)F)c1-c1cc(-c2cccc(NC(=O)C(Cl)Cl)c2)on1 [Compound 93, 2,2-Dichloro-N-[3-[3-(2-isopropyl-6-trifluoromethylphenyl)-5-isoxazolyl]phenyl]Acetamide]
IC50 ([1]; Hepatitis C virus): < 10 µM
IC50 at 48 h [2]: > 10 µM

O=C(Nc1cccc(-c2cc(-c3c(Cl)cccc3C3CCCC3)no2)c1)C(Cl)Cl [Compound 97, 2,2-Dichloro-N-[3-[3-(2-chloro-6-cyclopentylphenyl)-5-isoxazolyl]phenyl]Acetamide]
IC50 ([1]; Hepatitis C virus): < 10 µM
IC50 at 48 h [2]: > 10 µM

O=C(Nc1cccc(-c2cc(-c3c(Cl)cccc3N3CCN(CCN4CCCCC4)CC3)no2)c1)C(Cl)Cl [Compound 667]
IC50 [1]: < 10 µM

O=C(Nc1cccc(-c2cc(-c3c(Cl)cccc3N3CCC(C(=O)N4CCOCC4)CC3)no2)c1)C(Cl)Cl [Compound 668]
IC50 [1]: > 10 µM

CCCCNC(=O)Nc1cccc(Cl)c1-c1cc(-c2cccc(NC(=O)C(Cl)Cl)c2)on1 [Compound 669]
IC50 [1]: < 10 µM

O=C(Nc1cccc(-c2cc(-c3c(Cl)cccc3OCc3ccccc3)no2)c1)C(Cl)Cl [Compound 670]
IC50 [1]: < 10 µM

O=C(Nc1cccc(-c2cc(-c3c(Cl)cccc3I)no2)c1)C(Cl)Cl [Compound 677]
IC50 [1]: < 10 µM

CC(C)(C)OC(=O)COc1cccc(Cl)c1-c1cc(-c2cccc(NC(=O)C(Cl)Cl)c2)on1 [Compound 678]
IC50 [1]: > 10 µM

O=C(Nc1cccc(-c2cc(-c3c(Cl)cccc3NS(=O)(=O)c3ccc(Cl)cc3)no2)c1)C(Cl)Cl [Compound 679]
IC50 [1]: < 10 µM

O=C(Nc1cccc(-c2cc(-c3c(Cl)cccc3N3CCC(NS(=O)(=O)c4ccccc4)C3)no2)c1)C(Cl)Cl (stereo not drawn) [Compound 681]
IC50 [1]: < 10 µM

O=C(Nc1cccc(-c2cc(-c3c(Cl)cccc3C(=O)N3CCOCC3)no2)c1)C(Cl)Cl [Compound 683]
IC50 [1]: < 10 µM

O=C(Nc1cccc(-c2cc(-c3c(Cl)cccc3-c3cccnc3)no2)c1)C(Cl)Cl [Compound 685]
IC50 [1]: < 10 µM

CC(C)(C)OC(=O)c1cccc(Cl)c1-c1cc(-c2cccc(NC(=O)C(Cl)Cl)c2)on1 [Compound 686]
IC50 [1]: < 10 µM

O=C(O)c1cccc(Cl)c1-c1cc(-c2cccc(NC(=O)C(Cl)Cl)c2)on1 [Compound 687]
IC50 [1]: > 10 µM

CNC(=O)c1cccc(Cl)c1-c1cc(-c2cccc(NC(=O)C(Cl)Cl)c2)on1 [Compound 691]
IC50 [1]: < 10 µM

COC(=O)C(NC(=O)c1cccc(Cl)c1-c1cc(-c2cccc(NC(=O)C(Cl)Cl)c2)on1)c1ccccc1 (stereo not drawn) [Compound 693]
IC50 [1]: > 10 µM
